Laboratory results as given in ChEMBL document CHEMBL4800730 (2021).

Assays:
[1] = molecular target: Protein kinase C eta type (Homo sapiens) (UniProt P24723); assay: PRKCH (PKC eta) SelectScreen Kinase panel (LifeTechnologies); conditions: Compound concentration 1.0 uM
[2] = molecular target: Maternal embryonic leucine zipper kinase (Homo sapiens) (UniProt Q14680); assay: MELK SelectScreen Kinase panel (LifeTechnologies); conditions: Compound concentration 1.0 uM
[3] = molecular target: Glycogen synthase kinase-3 beta (Homo sapiens) (UniProt P49841); assay: GSK3B (GSK3 beta) SelectScreen Kinase panel (LifeTechnologies); conditions: Compound concentration 1.0 uM
[4] = molecular target: Muscarinic acetylcholine receptor M3 (Homo sapiens) (UniProt P20309); conditions: Compound concentration 10.0 uM
[5] = molecular target: cAMP-dependent protein kinase catalytic subunit alpha (Homo sapiens) (UniProt P17612); assay: PRKACA (PKA) SelectScreen Kinase panel (LifeTechnologies); conditions: Compound concentration 1.0 uM
[6] = molecular target: Mitogen-activated protein kinase kinase kinase kinase 5 (Homo sapiens) (UniProt Q9Y4K4); assay: MAP4K5 (KHS1) SelectScreen Kinase panel (LifeTechnologies); conditions: Compound concentration 1.0 uM
[7] = molecular target: 5-hydroxytryptamine receptor 2C (Homo sapiens) (UniProt P28335); conditions: Compound concentration 10.0 uM
[8] = molecular target: Serine/threonine-protein kinase D2 (Homo sapiens) (UniProt Q9BZL6); assay: PRKD2 (PKD2) SelectScreen Kinase panel (LifeTechnologies); conditions: Compound concentration 1.0 uM

Measured: inhibition

Maternal embryonic leucine zipper kinase (Homo sapiens), sequence (Q14680 whole entry, looked up): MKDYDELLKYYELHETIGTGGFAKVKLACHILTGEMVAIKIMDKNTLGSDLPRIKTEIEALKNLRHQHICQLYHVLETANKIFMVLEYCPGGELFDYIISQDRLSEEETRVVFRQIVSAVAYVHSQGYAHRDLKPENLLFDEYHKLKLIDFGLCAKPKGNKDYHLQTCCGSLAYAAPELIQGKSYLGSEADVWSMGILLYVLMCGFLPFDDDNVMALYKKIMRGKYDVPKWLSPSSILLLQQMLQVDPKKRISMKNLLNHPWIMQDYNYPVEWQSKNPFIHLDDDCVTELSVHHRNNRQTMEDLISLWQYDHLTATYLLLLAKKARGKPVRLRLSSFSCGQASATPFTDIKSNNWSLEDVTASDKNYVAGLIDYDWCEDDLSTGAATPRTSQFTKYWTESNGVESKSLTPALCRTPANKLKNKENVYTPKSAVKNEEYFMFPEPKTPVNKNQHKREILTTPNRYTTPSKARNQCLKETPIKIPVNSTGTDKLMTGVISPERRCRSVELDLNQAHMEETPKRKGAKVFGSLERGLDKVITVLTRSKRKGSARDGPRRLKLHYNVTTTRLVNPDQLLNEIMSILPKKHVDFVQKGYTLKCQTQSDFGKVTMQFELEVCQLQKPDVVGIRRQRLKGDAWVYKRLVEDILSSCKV
Muscarinic acetylcholine receptor M3 (Homo sapiens), sequence (P20309 whole entry, looked up): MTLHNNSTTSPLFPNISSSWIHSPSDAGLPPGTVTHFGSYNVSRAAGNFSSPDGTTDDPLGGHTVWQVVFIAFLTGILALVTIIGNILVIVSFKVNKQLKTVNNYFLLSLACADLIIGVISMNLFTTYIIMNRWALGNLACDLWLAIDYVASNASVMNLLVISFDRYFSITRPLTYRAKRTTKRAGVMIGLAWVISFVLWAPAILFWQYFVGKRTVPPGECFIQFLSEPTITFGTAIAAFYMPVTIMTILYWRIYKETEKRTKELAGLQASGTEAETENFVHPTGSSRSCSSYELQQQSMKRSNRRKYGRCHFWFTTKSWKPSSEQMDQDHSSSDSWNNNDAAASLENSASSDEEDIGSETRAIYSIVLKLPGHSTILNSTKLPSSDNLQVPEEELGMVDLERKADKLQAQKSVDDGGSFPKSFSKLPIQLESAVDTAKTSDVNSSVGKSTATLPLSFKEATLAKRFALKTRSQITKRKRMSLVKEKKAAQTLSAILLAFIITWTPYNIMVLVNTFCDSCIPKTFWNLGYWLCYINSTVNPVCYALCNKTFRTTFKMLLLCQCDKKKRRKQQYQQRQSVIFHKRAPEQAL
Mitogen-activated protein kinase kinase kinase kinase 5 (Homo sapiens), sequence (Q9Y4K4 whole entry, looked up): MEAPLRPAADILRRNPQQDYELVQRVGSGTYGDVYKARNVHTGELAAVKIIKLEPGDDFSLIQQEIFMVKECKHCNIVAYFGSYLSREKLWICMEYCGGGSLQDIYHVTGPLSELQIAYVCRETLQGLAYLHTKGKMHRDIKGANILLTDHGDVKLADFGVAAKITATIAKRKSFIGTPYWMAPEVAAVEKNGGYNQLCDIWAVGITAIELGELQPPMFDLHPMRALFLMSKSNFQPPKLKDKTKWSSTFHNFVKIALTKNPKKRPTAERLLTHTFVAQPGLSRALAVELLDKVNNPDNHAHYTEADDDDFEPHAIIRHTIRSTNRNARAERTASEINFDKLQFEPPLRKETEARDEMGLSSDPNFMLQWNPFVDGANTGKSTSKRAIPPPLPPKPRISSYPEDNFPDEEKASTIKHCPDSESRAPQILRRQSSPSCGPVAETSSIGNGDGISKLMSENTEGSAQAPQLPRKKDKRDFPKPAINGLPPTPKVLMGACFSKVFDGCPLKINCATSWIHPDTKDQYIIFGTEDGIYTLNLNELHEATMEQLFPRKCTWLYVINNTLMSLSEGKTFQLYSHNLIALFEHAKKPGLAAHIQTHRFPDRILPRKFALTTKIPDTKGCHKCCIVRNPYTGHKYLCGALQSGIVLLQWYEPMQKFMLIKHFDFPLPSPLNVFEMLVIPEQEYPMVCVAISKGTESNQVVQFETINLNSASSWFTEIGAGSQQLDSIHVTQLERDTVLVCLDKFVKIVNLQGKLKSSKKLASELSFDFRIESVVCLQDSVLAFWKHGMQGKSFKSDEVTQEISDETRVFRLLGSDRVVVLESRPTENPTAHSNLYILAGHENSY
5-hydroxytryptamine receptor 2C (Homo sapiens), sequence (P28335 whole entry): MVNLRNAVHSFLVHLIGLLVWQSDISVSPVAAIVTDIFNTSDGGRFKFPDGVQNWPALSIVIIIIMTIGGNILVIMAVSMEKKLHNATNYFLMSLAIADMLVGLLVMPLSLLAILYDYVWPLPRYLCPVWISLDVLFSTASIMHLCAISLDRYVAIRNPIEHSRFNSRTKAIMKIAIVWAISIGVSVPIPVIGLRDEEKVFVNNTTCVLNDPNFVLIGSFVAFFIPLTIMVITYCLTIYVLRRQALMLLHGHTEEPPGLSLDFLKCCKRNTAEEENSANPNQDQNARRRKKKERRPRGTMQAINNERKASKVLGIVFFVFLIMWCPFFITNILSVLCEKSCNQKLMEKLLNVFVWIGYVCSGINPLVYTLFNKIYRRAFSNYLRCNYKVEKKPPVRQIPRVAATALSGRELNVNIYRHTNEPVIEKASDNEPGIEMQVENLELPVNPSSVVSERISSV
Protein kinase C eta type (Homo sapiens), sequence (P24723 whole entry): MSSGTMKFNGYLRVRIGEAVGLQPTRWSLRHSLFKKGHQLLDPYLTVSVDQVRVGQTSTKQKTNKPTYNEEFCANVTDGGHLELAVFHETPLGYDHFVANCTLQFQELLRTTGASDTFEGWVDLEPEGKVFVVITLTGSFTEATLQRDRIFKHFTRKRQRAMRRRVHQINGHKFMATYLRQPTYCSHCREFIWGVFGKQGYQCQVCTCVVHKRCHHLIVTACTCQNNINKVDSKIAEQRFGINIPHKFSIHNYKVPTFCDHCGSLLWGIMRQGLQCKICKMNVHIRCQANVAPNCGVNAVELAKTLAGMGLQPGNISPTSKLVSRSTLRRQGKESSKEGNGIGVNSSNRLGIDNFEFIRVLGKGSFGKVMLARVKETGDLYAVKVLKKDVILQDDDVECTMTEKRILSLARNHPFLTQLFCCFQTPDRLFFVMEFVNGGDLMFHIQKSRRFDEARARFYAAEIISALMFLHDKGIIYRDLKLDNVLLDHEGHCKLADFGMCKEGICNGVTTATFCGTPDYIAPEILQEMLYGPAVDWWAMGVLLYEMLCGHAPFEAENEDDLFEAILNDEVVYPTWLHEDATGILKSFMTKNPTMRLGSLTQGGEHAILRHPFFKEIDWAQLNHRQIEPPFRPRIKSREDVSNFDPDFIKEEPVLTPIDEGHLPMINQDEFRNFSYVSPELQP
Glycogen synthase kinase-3 beta (Homo sapiens), sequence (P49841 whole entry, looked up): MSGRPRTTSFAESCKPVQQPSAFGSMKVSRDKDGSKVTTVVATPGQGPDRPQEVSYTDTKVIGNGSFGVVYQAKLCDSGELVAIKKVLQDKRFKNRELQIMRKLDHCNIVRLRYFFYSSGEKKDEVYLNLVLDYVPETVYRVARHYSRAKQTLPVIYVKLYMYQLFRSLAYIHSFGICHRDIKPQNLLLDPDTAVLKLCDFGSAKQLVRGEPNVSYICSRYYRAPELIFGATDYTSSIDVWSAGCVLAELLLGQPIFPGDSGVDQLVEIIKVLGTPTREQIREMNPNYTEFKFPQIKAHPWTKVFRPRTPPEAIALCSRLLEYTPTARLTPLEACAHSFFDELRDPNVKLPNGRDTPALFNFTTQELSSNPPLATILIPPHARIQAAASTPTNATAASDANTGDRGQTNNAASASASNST
Serine/threonine-protein kinase D2 (Homo sapiens), sequence (Q9BZL6 whole entry): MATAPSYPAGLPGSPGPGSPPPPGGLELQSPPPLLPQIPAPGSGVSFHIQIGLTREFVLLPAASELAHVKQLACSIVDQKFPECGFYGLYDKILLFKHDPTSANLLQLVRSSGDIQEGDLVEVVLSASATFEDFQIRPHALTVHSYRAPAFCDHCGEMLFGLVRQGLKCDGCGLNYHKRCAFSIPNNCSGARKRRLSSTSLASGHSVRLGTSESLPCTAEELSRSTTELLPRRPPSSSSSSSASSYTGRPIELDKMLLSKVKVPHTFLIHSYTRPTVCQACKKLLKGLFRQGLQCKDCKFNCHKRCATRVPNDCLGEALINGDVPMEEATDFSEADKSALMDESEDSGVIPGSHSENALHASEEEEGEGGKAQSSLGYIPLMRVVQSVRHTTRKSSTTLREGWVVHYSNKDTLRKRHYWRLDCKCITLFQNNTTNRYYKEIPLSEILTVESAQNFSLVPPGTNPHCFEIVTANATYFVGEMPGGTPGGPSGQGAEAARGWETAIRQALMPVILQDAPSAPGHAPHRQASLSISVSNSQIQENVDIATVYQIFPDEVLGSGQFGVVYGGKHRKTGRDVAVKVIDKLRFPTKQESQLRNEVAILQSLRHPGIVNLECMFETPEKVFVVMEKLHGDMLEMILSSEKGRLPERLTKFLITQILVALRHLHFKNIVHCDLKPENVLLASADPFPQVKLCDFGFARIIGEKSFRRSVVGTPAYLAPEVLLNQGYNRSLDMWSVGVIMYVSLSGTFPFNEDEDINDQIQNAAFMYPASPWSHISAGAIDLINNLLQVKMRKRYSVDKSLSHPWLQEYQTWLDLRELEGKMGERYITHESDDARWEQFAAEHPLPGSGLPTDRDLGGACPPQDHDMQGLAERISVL

C=CC(=O)Nc1ccc2[nH]c(=O)n(C3CCN(Cc4ccc(-c5nc6cc[nH]c(=O)c6cc5-c5ccccc5)cc4)CC3)c2c1 [Borussertib]
inactive: [1] -2% | [2] 30% | [3] 20% | [4] 5.83% | [5] -3% | [6] 37% | [7] -8.03% | [8] 5%
